US20130115256A1, “METHODS FOR TREATING OR PREVENTING VASCULAR GRAFT FAILURE” (priority 2010, published 2013)

Legend:
[1] = tested on: human smooth muscle cell (SMC; HASMC); test: MTS cell proliferation assay, human smooth muscle cells; format: cell-based
Method: The CellTiter 96® AQueous Non-Radioactive Cell Proliferation Assay (Promega) was used to assess drug effects on cell proliferation according to the manufacturer's instructions. Briefly, HAECs and HASMCs from early passages were grown to 80-90% confluence in 25 cm^2 tissue culture flasks in a 37° C./5% CO2 incubator prior to harvest. 200 μl of each type of cell suspension (at 20,000 cells/cm^2) was seeded onto separate 96-well plates to yield an approximate 60% confluence per well. Cells were allowed to adhere to the plate surface overnight, followed by addition of 20 ng/ml of TNF-α to stimulate production of inflammatory agents. After a 4-6 hour incubation period, MMI-0100 peptide drug ([…]; SEQ ID NO: 1) was added and cells incubated for another 20-24 hours. Each well was then supplemented with 100 μl of fresh medium and 200 μl of CellTiter 96® AQueous One Solution Reagent and incubated for an additional 1.5-2 hours prior to measuring absorbance of each well at 490 nm with a SoftMax®-equipped plate reader.
In order to determine the effect of pharmacological doses of MMI-0100 ([…]; SEQ ID NO: 1) on human endothelial cell (EC) and smooth muscle cell (SMC) proliferation, human EC and SMC cultures were treated with three concentrations (0.25 mM, 0.5 mM, and 1 mM) of MMI-0100 ([…] (SEQ ID NO: 1)) following pre-treatment with TNF-α.

[2] = tested on: human saphenous vein (HSV); test: Human saphenous vein organ culture model of intimal hyperplasia
Method: Dc-identified, discarded segments of human saphenous vein (HSV) were collected from consented patients undergoing coronary artery or peripheral vascular bypass surgeries. HSV segments were stored in a saline solution until the end of the surgical procedure, at which time they were placed in cold transplant harvest buffer (100 mM potassium lactobionate, 25 mM KH2PO4, 5 mM MgSO4, 30 mM Raffinose, 5 mM Adenosine, 3 mM Glutathione, 1 mM Allopurinol, 50 g/L Hydroxyethyl starch, pH 7.4). The vessels were used within 24 hours of harvest. Using sterile technique, HSV segments were transferred to a 60-mm Petri dish under a sterile hood. The edges (0.5 mm) of each segment were removed with a blade and excess adventitial tissue and fat removed with minimal manipulation. […]
After viability was determined in the muscle bath, additional rings were cut and placed in 8-well chamber slides and maintained in RPMI 1640 medium supplemented with 30% FBS, 1% L-glutamine and 1% penicillin/streptomycin for 14 days at 37° C. in an atmosphere of 5% CO2 in air. […]
After 14 days of organ culture, vein segments were fixed in 0.5 mL of 10% formalin at 37° C. for 30 minutes and embedded in paraffin for sectioning. […] Intimal and medial thickening was measured for each section at 5× magnification with the microscope's computerized image analysis system. […]

YARAAARQARAKALARQLGVAA [MMI-0100] was tested. Which “SMC proliferation compared to control (20 ng/ml TNF-α alone)” value ([1]; 0.25 mM MMI-0100) did it give?
The value was “slightly increased”.

And the “increase in SMC proliferation compared to control (20 ng/ml TNF-α alone)” value ([1]; 0.5 mM MMI-0100)?
The value was 12%.

What about the “increase in SMC proliferation compared to control (20 ng/ml TNF-α alone)” value ([1]; 1 mM MMI-0100) of the same sequence?
The value was 7%.

And the “SMC morphology, phase contrast images” value ([1]; 24 hours treatment)?
The value was “no obvious morphological changes”.

And the mean intimal thickness ([2]; 10 μM MMI-0100, 14 days culture, 30% FBS)?
The mean intimal thickness was 14 μm.

And the “intima:media (I:M) ratio” value ([2]; 100 μM MMI-0100, 14 days, 30% serum)?
The value was “greater reduction”.
